Results on nine molecules are retold here after ChEMBL document CHEMBL1145592, “Pleuromutilin derivatives having a purine ring. Part 1: new compounds with promising antibacterial activity against resistant Gram-positive pathogens” (2008).

Each structure is given as a SMILES string. Values after ≈ are worked out from the molar mass of the structure shown.

What all share (assay type): functional
In experiment [1] the test system is Streptococcus pneumoniae. Kind of experiment: Antibacterial activity against penicillin-resistant Streptococcus pneumoniae KT2524.
Experiment [2] deals with Staphylococcus aureus. Nature of the experiment: Antibacterial activity against methicillin-susceptible Staphylococcus aureus Smith.
Experiment [3] deals with Staphylococcus aureus. Nature of the experiment: Antibacterial activity against methicillin-resistant Staphylococcus aureus KMP9.
The subject of the next experiment is Haemophilus influenzae. Kind of experiment: Antibacterial activity against Haemophilus influenzae TH13.
The subject of experiment [4] is Streptococcus pneumoniae. Nature of the experiment: Antibacterial activity against penicillin-susceptible Streptococcus pneumoniae ATCC 49619.
For a further experiment, the system named is Enterococcus faecium. Kind of experiment: Antibacterial activity against vancomycin-resistant Enterococcus faecium KU1778.
Another experiment concerns Streptococcus pyogenes. Kind of experiment: Antibacterial activity against Streptococcus pyogenes ATCC 12344.
The subject of experiment [5] is Staphylococcus aureus. Nature of the experiment: Antibacterial activity against methicillin-susceptible Staphylococcus aureus Smith infected iv dosed mouse 1 hr after inoculation.
The next experiment deals with Moraxella catarrhalis. Nature of the experiment: Antibacterial activity against Moraxella catarrhalis K1209.

With `C=C[C@]1(C)C[C@@H](OC(=O)CSC2CCN(C(=O)CCn3cnc4c(N5CC[C@@H](N)C5)ncnc43)CC2)[C@]2(C)[C@H](C)CC[C@]3(CCC(=O)[C@@H]32)[C@@H](C)[C@@H]1O`, the MIC is 0.016 µg/mL (≈ 0.0217 µM) with Streptococcus pneumoniae [1]; 0.063 µg/mL (≈ 0.0856 µM) against Staphylococcus aureus [2]; 0.25 µg/mL (≈ 0.34 µM) in the experiment with Staphylococcus aureus [3]; 1 µg/mL (≈ 1.36 µM) against Haemophilus influenzae; 0.016 µg/mL (≈ 0.0217 µM) with Streptococcus pneumoniae [4]; 0.063 µg/mL (≈ 0.0856 µM) with Enterococcus faecium. Also, the MIC against Streptococcus pyogenes stood at 0.008 µg/mL (≈ 0.0109 µM); in the experiment on Moraxella catarrhalis, 0.063 µg/mL (≈ 0.0856 µM). For the same molecule, the ED50 (in general, the dose that gives a 50% effect, or the effect in half of the subjects) with Staphylococcus aureus [5] came to 1.01 mg/kg.
In the case of `C=C[C@]1(C)C[C@@H](OC(=O)CSC2CCN(C(=O)CCn3cnc4c(N5CCC(N)C5)nc(N)nc43)CC2)[C@]2(C)[C@H](C)CC[C@]3(CCC(=O)[C@@H]32)[C@@H](C)[C@@H]1O` (stereo partly drawn), the MIC in the experiment on Streptococcus pneumoniae [1] was 0.125 µg/mL (≈ 0.166 µM); with Staphylococcus aureus [2], 0.5 µg/mL (≈ 0.666 µM); against Staphylococcus aureus [3], 1 µg/mL (≈ 1.33 µM); against Haemophilus influenzae it was 1 µg/mL (≈ 1.33 µM); against Streptococcus pneumoniae [4], 0.125 µg/mL (≈ 0.166 µM); with Enterococcus faecium, 0.125 µg/mL (≈ 0.166 µM). The results for the MIC in the experiment with Streptococcus pyogenes and in the experiment with Moraxella catarrhalis were 0.063 µg/mL (≈ 0.0839 µM) and 0.25 µg/mL (≈ 0.333 µM), respectively. This molecule registered an ED50 in the experiment with Staphylococcus aureus [5] of 3.05 mg/kg.
Regarding `C=C[C@]1(C)C[C@@H](OC(=O)CSC2CCN(C(=O)CCn3cnc4c(N5CCC(N)CC5)ncnc43)CC2)[C@]2(C)[C@H](C)CC[C@]3(CCC(=O)[C@@H]32)[C@@H](C)[C@@H]1O`, the MIC in the experiment with Streptococcus pneumoniae [1] came to 0.032 µg/mL (≈ 0.0427 µM); against Staphylococcus aureus [2] it was 0.125 µg/mL (≈ 0.167 µM); in the experiment with Staphylococcus aureus [3] it was 0.25 µg/mL (≈ 0.333 µM); against Haemophilus influenzae, 4 µg/mL (≈ 5.33 µM); with Streptococcus pneumoniae [4], 0.016 µg/mL (≈ 0.0213 µM); with Enterococcus faecium it was 0.063 µg/mL (≈ 0.084 µM). For the same molecule, the MIC with Streptococcus pyogenes worked out at 0.016 µg/mL (≈ 0.0213 µM); in the experiment with Moraxella catarrhalis it was 0.063 µg/mL (≈ 0.084 µM). This molecule returned an ED50 in the experiment with Staphylococcus aureus [5] of 1.5 mg/kg.
As for `C=C[C@]1(C)C[C@@H](OC(=O)CSC2CCN(C(=O)CCn3cnc4c(N5CCC(NC)C5)nc(N)nc43)CC2)[C@]2(C)[C@H](C)CC[C@]3(CCC(=O)[C@@H]32)[C@@H](C)[C@@H]1O` (stereo partly drawn), the MIC with Streptococcus pneumoniae [1] stood at 0.063 µg/mL (≈ 0.0823 µM); against Staphylococcus aureus [2] it was 0.25 µg/mL (≈ 0.327 µM); in the experiment with Staphylococcus aureus [3], 1 µg/mL (≈ 1.31 µM); in the experiment on Haemophilus influenzae, 1 µg/mL (≈ 1.31 µM); in the experiment on Streptococcus pneumoniae [4] it was 0.063 µg/mL (≈ 0.0823 µM); in the experiment on Enterococcus faecium, 0.25 µg/mL (≈ 0.327 µM). Further, the results for the MIC against Streptococcus pyogenes and with Moraxella catarrhalis were 0.032 µg/mL (≈ 0.0418 µM) and 0.125 µg/mL (≈ 0.163 µM), respectively. Also, the 50% effect level in the experiment on Staphylococcus aureus [5] (ED50) was put at a dose of 1.72 mg/kg.
Consider `C=C[C@]1(C)C[C@@H](OC(=O)CSC2CCN(C(=O)CCn3cnc4c(N5CCC(N(C)C)C5)nc(N)nc43)CC2)[C@]2(C)[C@H](C)CC[C@]3(CCC(=O)[C@@H]32)[C@@H](C)[C@@H]1O` (stereo partly drawn), for which the MIC turned out to be 0.063 µg/mL (≈ 0.0809 µM) in the experiment on Streptococcus pneumoniae [1]; 0.25 µg/mL (≈ 0.321 µM) in the experiment on Staphylococcus aureus [2]; 0.25 µg/mL (≈ 0.321 µM) against Staphylococcus aureus [3]; 2 µg/mL (≈ 2.57 µM) with Haemophilus influenzae; 0.063 µg/mL (≈ 0.0809 µM) against Streptococcus pneumoniae [4]; 0.125 µg/mL (≈ 0.16 µM) against Enterococcus faecium. Also, the MIC was 0.063 µg/mL (≈ 0.0809 µM) against Streptococcus pyogenes and 0.125 µg/mL (≈ 0.16 µM) in the experiment with Moraxella catarrhalis. Moreover, it took a dose of 3 mg/kg to reach the 50% effect level with Staphylococcus aureus [5] (ED50).
Turning to `CN[C@H](CC(C)C)C(=O)N[C@H]1C(=O)N[C@@H](CC(N)=O)C(=O)N[C@H]2C(=O)N[C@H]3C(=O)N[C@H](C(=O)N[C@H](C(=O)O)c4cc(O)cc(O)c4-c4cc3ccc4O)[C@H](O)c3ccc(c(Cl)c3)Oc3cc2cc(c3O[C@@H]2O[C@H](CO)[C@@H](O)[C@H](O)[C@H]2O[C@H]2C[C@](C)(N)[C@H](O)[C@H](C)O2)Oc2ccc(cc2Cl)[C@H]1O` [VANCOMYCIN], the MIC in the experiment with Streptococcus pneumoniae [1] is 0.5 µg/mL (≈ 0.345 µM); in the experiment on Haemophilus influenzae it was greater than 128 µg/mL; with Streptococcus pneumoniae [4], 0.25 µg/mL (≈ 0.173 µM); against Enterococcus faecium it was greater than 128 µg/mL; in the experiment with Moraxella catarrhalis, 64 µg/mL (≈ 44.2 µM). The same molecule yielded an ED50 in the experiment with Staphylococcus aureus [5] of 0.88 mg/kg.
Consider `C=C[C@]1(C)C[C@@H](OC(=O)CSC2CCN(C(=O)CCn3cnc4c(N5CCC(N)CC5)nc(N)nc43)CC2)[C@]2(C)[C@H](C)CC[C@]3(CCC(=O)[C@@H]32)[C@@H](C)[C@@H]1O`, for which the MIC against Streptococcus pneumoniae [1] came to 0.125 µg/mL (≈ 0.163 µM); in the experiment with Staphylococcus aureus [2] it was 0.25 µg/mL (≈ 0.327 µM); in the experiment with Staphylococcus aureus [3], 1 µg/mL (≈ 1.31 µM); with Haemophilus influenzae, 2 µg/mL (≈ 2.61 µM); against Streptococcus pneumoniae [4], 0.063 µg/mL (≈ 0.0823 µM); in the experiment on Enterococcus faecium it was 0.25 µg/mL (≈ 0.327 µM). Besides, the MIC in the experiment on Streptococcus pyogenes was 0.063 µg/mL (≈ 0.0823 µM); against Moraxella catarrhalis, 0.125 µg/mL (≈ 0.163 µM). In addition, the ED50 in the experiment with Staphylococcus aureus [5] was found to be 1.86 mg/kg.
As for `C=C[C@]1(C)C[C@@H](OC(=O)CSC2CCN(C(=O)CCn3cnc4c(N5CCC(CNC)C5)nc(N)nc43)CC2)[C@]2(C)[C@H](C)CC[C@]3(CCC(=O)[C@@H]32)[C@@H](C)[C@@H]1O` (stereo partly drawn), the MIC with Streptococcus pneumoniae [1] stood at 0.25 µg/mL (≈ 0.321 µM); with Staphylococcus aureus [2] it was 0.5 µg/mL (≈ 0.642 µM); against Staphylococcus aureus [3] it was 4 µg/mL (≈ 5.13 µM); with Haemophilus influenzae, 4 µg/mL (≈ 5.13 µM); in the experiment on Streptococcus pneumoniae [4], 0.125 µg/mL (≈ 0.16 µM); in the experiment on Enterococcus faecium it was 0.5 µg/mL (≈ 0.642 µM). In addition, the values for the MIC against Streptococcus pyogenes and in the experiment on Moraxella catarrhalis were 0.032 µg/mL (≈ 0.0411 µM) and 0.25 µg/mL (≈ 0.321 µM), respectively. The same molecule had an ED50 in the experiment with Staphylococcus aureus [5] of 1.01 mg/kg.
Take `C=C[C@]1(C)C[C@@H](OC(=O)CSC2CCN(C(=O)CCn3cnc4c(N5CCCC(N)C5)nc(N)nc43)CC2)[C@]2(C)[C@H](C)CC[C@]3(CCC(=O)[C@@H]32)[C@@H](C)[C@@H]1O` (stereo partly drawn): the MIC came to 0.063 µg/mL (≈ 0.0823 µM) in the experiment on Streptococcus pneumoniae [1]; 0.25 µg/mL (≈ 0.327 µM) with Staphylococcus aureus [2]; 1 µg/mL (≈ 1.31 µM) against Staphylococcus aureus [3]; 2 µg/mL (≈ 2.61 µM) against Haemophilus influenzae; 0.063 µg/mL (≈ 0.0823 µM) in the experiment on Streptococcus pneumoniae [4]; 0.25 µg/mL (≈ 0.327 µM) against Enterococcus faecium. In addition, the MIC is 0.032 µg/mL (≈ 0.0418 µM) in the experiment with Streptococcus pyogenes and 0.125 µg/mL (≈ 0.163 µM) with Moraxella catarrhalis. Moreover, in the experiment with Staphylococcus aureus [5], the ED50 worked out at 2.21 mg/kg.
